According to ChEMBL document CHEMBL4725392, “Orally Bioavailable Small-Molecule CD73 Inhibitor (OP-5244) Reverses Immunosuppression through Blockade of Adenosine Production” (J Med Chem, 2020):

Experiments:
[1] = molecular target: T1, 5'-nucleotidase (Homo sapiens, UniProt P21589); experiment: Inhibition of human C-terminal His6-tagged CD73 expressed in CHO cells preincubated for 15 mins followed by AMP addition and measured after 10 mins by malachite green reagent based assay; format: cell-based
[2] = Cmax in mouse at 200 mg/kg, po; format: ADME, organism-based; parameters: route oral, dose 200 mg/kg; details: in vivo
[3] = AUC infinity in mouse at 200 mg/kg, po; format: ADME, organism-based; parameters: route oral, time infinity, dose 200 mg/kg; details: in vivo
[4] = molecular target: T1, 5'-nucleotidase; experiment: Inhibition of CD73 in human NCI-H1568 cells assessed as reduction in AMP-induced ADO expression preincubated for 15 mins followed by AMP addition and measured after 1 hr by LC-MS/MS analysis; format: cell-based
[5] = Terminal half life in mouse at 200 mg/kg, po; format: ADME, organism-based; details: in vivo, read-out: beta t1/2 (converted)
[6] = molecular target: T2, 5'-nucleotidase (Mus musculus, UniProt Q61503); experiment: Inhibition of CD73 in mouse EMT6 cells assessed as reduction in AMP-induced ADO expression preincubated for 15 mins followed by AMP addition and measured after 1 hr by LC-MS/MS analysis; format: cell-based
T2 sequence (Q61503 whole entry): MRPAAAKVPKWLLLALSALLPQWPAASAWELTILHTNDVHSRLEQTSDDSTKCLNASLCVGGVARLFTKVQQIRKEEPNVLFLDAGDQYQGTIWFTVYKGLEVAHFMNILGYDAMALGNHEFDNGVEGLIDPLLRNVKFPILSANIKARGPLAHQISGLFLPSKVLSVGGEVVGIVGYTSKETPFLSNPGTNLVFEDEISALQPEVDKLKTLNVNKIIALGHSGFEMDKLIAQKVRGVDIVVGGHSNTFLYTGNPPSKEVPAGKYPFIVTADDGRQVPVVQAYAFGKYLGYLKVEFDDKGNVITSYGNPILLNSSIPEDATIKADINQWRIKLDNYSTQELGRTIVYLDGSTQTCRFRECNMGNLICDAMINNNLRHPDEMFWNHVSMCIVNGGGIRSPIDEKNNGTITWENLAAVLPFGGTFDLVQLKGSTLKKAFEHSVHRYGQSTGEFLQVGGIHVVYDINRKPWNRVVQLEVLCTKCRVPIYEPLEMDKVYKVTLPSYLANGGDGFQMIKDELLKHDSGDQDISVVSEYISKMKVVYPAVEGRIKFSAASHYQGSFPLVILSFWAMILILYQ

[7] = AUC infinity in rat at 50 mg/kg, po; format: ADME, organism-based; parameters: time infinity, route oral, dose 50 mg/kg; details: in vivo
[8] = Cmax in rat at 50 mg/kg, po; format: ADME, organism-based; parameters: route oral, dose 50 mg/kg; details: in vivo
[9] = Terminal half life in rat at 50 mg/kg, po; format: ADME, organism-based; details: in vivo, read-out: beta t1/2 (converted)

T1 sequence (P21589 whole entry): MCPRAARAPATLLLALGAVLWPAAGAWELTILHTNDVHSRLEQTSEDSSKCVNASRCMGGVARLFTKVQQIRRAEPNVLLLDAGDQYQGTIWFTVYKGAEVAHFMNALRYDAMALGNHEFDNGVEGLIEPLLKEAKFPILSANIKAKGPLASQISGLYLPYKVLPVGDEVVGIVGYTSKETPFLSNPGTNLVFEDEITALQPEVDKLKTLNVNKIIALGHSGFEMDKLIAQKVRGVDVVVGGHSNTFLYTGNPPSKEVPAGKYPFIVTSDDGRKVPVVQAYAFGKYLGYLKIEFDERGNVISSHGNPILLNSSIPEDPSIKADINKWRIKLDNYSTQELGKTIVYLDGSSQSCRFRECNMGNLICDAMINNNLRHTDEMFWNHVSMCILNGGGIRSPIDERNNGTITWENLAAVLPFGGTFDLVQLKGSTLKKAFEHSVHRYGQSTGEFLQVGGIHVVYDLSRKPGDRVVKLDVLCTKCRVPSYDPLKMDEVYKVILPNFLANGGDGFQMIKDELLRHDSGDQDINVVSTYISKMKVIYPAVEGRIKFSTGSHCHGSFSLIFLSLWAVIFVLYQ

Structure (SMILES) | IC50 [1] | other results
O=P(O)(O)CCOC[C@H]1O[C@@H](n2ncc3c(NCc4ccccc4Cl)nc(Cl)nc32)[C@H](O)[C@@H]1O | 0.088 µM | –
CN(C[C@H]1O[C@@H](n2ncc3c(NCc4ccccc4Cl)nc(Cl)nc32)[C@H](O)[C@@H]1O)C(=O)CP(=O)(O)O | 0.248 µM | –
O=P(O)(O)C(OC[C@H]1O[C@@H](n2ncc3c(NC4CCCC4)nc(Cl)nc32)[C@H](O)[C@@H]1O)C(F)(F)F (mixture of isomers) | 0.387 µM | –
O=P(O)(O)COCC[C@H]1O[C@@H](n2ncc3c(NCc4ccccc4Cl)nc(Cl)nc32)[C@H](O)[C@@H]1O | 1.2 µM | –
COP(=O)(O)CP(=O)(OC)OC[C@H]1O[C@@H](n2ncc3c(NCc4ccccc4Cl)nc(Cl)nc32)[C@H](O)[C@@H]1O (some centres undefined) | 2.87 µM | –
CN(Cc1ccccc1)c1nc(Cl)nc2c1ncn2[C@@H]1O[C@H](COP(=O)(O)CP(=O)(O)O)[C@@H](O)[C@H]1O | 0.003 µM | –
O=P(O)(O)CSC[C@H]1O[C@@H](n2ncc3c(NCc4ccccc4Cl)nc(Cl)nc32)[C@H](O)[C@@H]1O | 0.164 µM | –
O=P(O)(O)C(CO)(CO)OC[C@H]1O[C@@H](n2ncc3c(NC4CCCC4)nc(Cl)nc32)[C@H](O)[C@@H]1O | 0.00057 µM | Cmax [2]: 67.4 µM; AUC(0-inf) [3]: 95.6 µM·h; EC50 [4]: 0.0037 µM; half-life [5]: 3.3 h; EC50 [6]: 0.046 µM
CN(c1nc(Cl)nc2c1cnn2[C@@H]1O[C@H](COP(=O)(O)CP(=O)(O)O)[C@@H](O)[C@H]1O)[C@H]1CCc2ccccc21 | 0.00052 µM | –
O=P(O)(O)C(CO)OC[C@H]1O[C@@H](n2ncc3c(NC4CCCC4)nc(Cl)nc32)[C@H](O)[C@@H]1O (mixture of isomers) | 0.0024 µM | –
O=P(O)(O)CS(=O)(=O)NC[C@H]1O[C@@H](n2ncc3c(NCc4ccccc4Cl)nc(Cl)nc32)[C@H](O)[C@@H]1O | 0.328 µM | –
O=C(CP(=O)(O)O)OC[C@H]1O[C@@H](n2ncc3c(NCc4ccccc4Cl)nc(Cl)nc32)[C@H](O)[C@@H]1O | 0.51 µM | –
CC(CO)(OC[C@H]1O[C@@H](n2ncc3c(NC4CCCC4)nc(Cl)nc32)[C@H](O)[C@@H]1O)P(=O)(O)O (mixture of isomers) | 0.0013 µM | –
COCC(CO)(OC[C@H]1O[C@@H](n2ncc3c(NC4CCCC4)nc(Cl)nc32)[C@H](O)[C@@H]1O)P(=O)(O)O (mixture of isomers) | 0.00053 µM | –
CS(=O)(=O)C(OC[C@H]1O[C@@H](n2ncc3c(NC4CCCC4)nc(Cl)nc32)[C@H](O)[C@@H]1O)P(=O)(O)O (mixture of isomers) | 0.193 µM | –
O=P(O)(O)COC[C@H]1O[C@@H](n2ncc3c(NCc4ccccc4Cl)nc(Cl)nc32)[C@H](O)[C@@H]1O | 0.029 µM | AUC(0-inf) [7]: 0.66 µM·h; Cmax [8]: 0.11 µM; half-life [9]: 1.9 h
N#CC(OC[C@H]1O[C@@H](n2ncc3c(NC4CCCC4)nc(Cl)nc32)[C@H](O)[C@@H]1O)P(=O)(O)O (mixture of isomers) | 0.559 µM | –
COP(=O)(O)CP(=O)(O)OC[C@H]1O[C@@H](n2ncc3c(NCc4ccccc4Cl)nc(Cl)nc32)[C@H](O)[C@@H]1O | 0.131 µM | –
C[C@](CO)(OC[C@H]1O[C@@H](n2ncc3c(NC4CCCC4)nc(Cl)nc32)[C@H](O)[C@@H]1O)P(=O)(O)O | 0.0117 µM | –

Structure (SMILES) | IC50 [1] | other results
CN(c1nc(Cl)nc2c1nnn2[C@@H]1O[C@H](COP(=O)(O)CP(=O)(O)O)[C@@H](O)[C@H]1O)[C@H]1CCc2ccccc21 | 0.0013 µM | –
CC(CS(C)(=O)=O)(OC[C@H]1O[C@@H](n2ncc3c(NC4CCCC4)nc(Cl)nc32)[C@H](O)[C@@H]1O)P(=O)(O)O (mixture of isomers) | 0.023 µM | –
CN(CC(C)(OC[C@H]1O[C@@H](n2ncc3c(NC4CCCC4)nc(Cl)nc32)[C@H](O)[C@@H]1O)P(=O)(O)O)S(C)(=O)=O (mixture of isomers) | 0.097 µM | –
O=P(O)(O)C(OC[C@H]1O[C@@H](n2ncc3c(NC4CCCC4)nc(Cl)nc32)[C@H](O)[C@@H]1O)c1nnn[nH]1 (mixture of isomers) | 0.028 µM | –
CC(CCO)(OC[C@H]1O[C@@H](n2ncc3c(NC4CCCC4)nc(Cl)nc32)[C@H](O)[C@@H]1O)P(=O)(O)O (mixture of isomers) | 0.031 µM | –
COC[C@@](CO)(OC[C@H]1O[C@@H](n2ncc3c(NC4CCCC4)nc(Cl)nc32)[C@H](O)[C@@H]1O)P(=O)(O)O | 0.001 µM | –
C[C@@](CO)(OC[C@H]1O[C@@H](n2ncc3c(NC4CCCC4)nc(Cl)nc32)[C@H](O)[C@@H]1O)P(=O)(O)O | 0.00051 µM | Cmax [2]: 54.9 µM; AUC(0-inf) [3]: 54.2 µM·h; EC50 [4]: 0.0069 µM; half-life [5]: 2.88 h; EC50 [6]: 0.041 µM
COCC(OC[C@H]1O[C@@H](n2ncc3c(NC4CCCC4)nc(Cl)nc32)[C@H](O)[C@@H]1O)P(=O)(O)O (mixture of isomers) | 0.00096 µM | –
CSCC(C)(OC[C@H]1O[C@@H](n2ncc3c(NC4CCCC4)nc(Cl)nc32)[C@H](O)[C@@H]1O)P(=O)(O)O (mixture of isomers) | 0.01 µM | –
O=P(O)(O)CS(=O)(=O)C[C@H]1O[C@@H](n2ncc3c(NCc4ccccc4Cl)nc(Cl)nc32)[C@H](O)[C@@H]1O | 0.013 µM | AUC(0-inf) [7]: 0.54 µM·h; Cmax [8]: 0.06 µM; half-life [9]: 3 h
C[C@H](Nc1cc(Cl)nc2c1cnn2[C@@H]1O[C@H](COP(=O)(O)CP(=O)(O)O)[C@@H](O)[C@H]1O)c1ccccc1F | – | EC50 [6]: 0.198 µM
O=C(O)C(OC[C@H]1O[C@@H](n2ncc3c(NC4CCCC4)nc(Cl)nc32)[C@H](O)[C@@H]1O)P(=O)(O)O (mixture of isomers) | 0.108 µM | –
CC(OC[C@H]1O[C@@H](n2ncc3c(NC4CCCC4)nc(Cl)nc32)[C@H](O)[C@@H]1O)P(=O)(O)O (mixture of isomers) | 0.018 µM | –
O=P(O)(O)COC[C@H]1O[C@@H](n2ncc3c(NC4CCCC4)nc(Cl)nc32)[C@H](O)[C@@H]1O | 0.011 µM | –
O=P(O)(O)CP(=O)(O)OC[C@H]1O[C@@H](n2nnc3c(NCc4ccccc4Cl)nc(Cl)nc32)[C@H](O)[C@@H]1O | 0.0039 µM | –
Nc1ncnc2c1ncn2[C@@H]1O[C@H](COP(=O)(O)CP(=O)(O)O)[C@@H](O)[C@H]1O [PHOSPHOMETHYLPHOSPHONIC ACID ADENOSYL ESTER] | 2.65 µM | EC50 [4]: 16.3 µM
CN(C)CC(C)(OC[C@H]1O[C@@H](n2ncc3c(NC4CCCC4)nc(Cl)nc32)[C@H](O)[C@@H]1O)P(=O)(O)O (mixture of isomers) | > 5 µM | –
COP(=O)(CP(=O)(O)O)OC[C@H]1O[C@@H](n2ncc3c(NCc4ccccc4Cl)nc(Cl)nc32)[C@H](O)[C@@H]1O (some centres undefined) | 0.0247 µM | –
